What was measured:
Experiment in all cases: relative viability (nuclei count vs DMSO), 5 days (fraction); higher = more cells survive
[1] = compound: CCC1=CN=CN=C1N2CCN(CC2)CC3=NC4=C(N3)C=C(C=C4)C(F)(F)F + COc1cc2c(Oc3ccc(NC(=O)C4(C(=O)Nc5ccc(F)cc5)CC4)cc3F)ccnc2cc1OCCCN1CCOCC1 [Foretinib] (partner 0.25 µM)
Method in brief: (§1)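 Each reported value is a median over duplicate plates. It expresses relative viability: treated-well nuclei count divided by vehicle-well nuclei count. Lung cancer cell lines in 1536-well plates were dosed by pin tool a day after seeding, alone with one drug or with a fixed anchor-drug dose plus five library-drug doses (not always all listed) in √10 steps, and nuclei were counted after 5 days.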

[2] = compound: CCC1=CN=CN=C1N2CCN(CC2)CC3=NC4=C(N3)C=C(C=C4)C(F)(F)F + CS(=O)(=O)CCNCc1ccc(-c2ccc3ncnc(Nc4ccc(OCc5cccc(F)c5)c(Cl)c4)c3c2)o1 [Lapatinib] (partner 2 µM)
Method in brief: as §1

[3] = compound: CCn1c(-c2nonc2N)nc2cnc(Oc3cccc(NC(=O)c4ccc(OCCN5CCOCC5)cc4)c3)cc21 + Cc1cc(Nc2cc(N3CCN(C)CC3)nc(Sc3ccc(NC(=O)C4CC4)cc3)n2)n[nH]1 [Tozasertib] (partner 0.1 µM)
Method in brief: as §1

[4] = compound: CCn1c(-c2nonc2N)nc2cnc(Oc3cccc(NC(=O)c4ccc(OCCN5CCOCC5)cc4)c3)cc21 + Nc1ncn([C@H]2C[C@H](O)[C@@H](CO)O2)c(=O)n1 [Decitabine] (partner 2 µM)
Method in brief: as §1

Cell Line	relative viability ([1]; first compound 0.04 µM)	relative viability ([1]; first compound 0.1265 µM)	relative viability ([1]; first compound 0.4 µM)	relative viability ([1]; first compound 1.265 µM)	relative viability ([1]; first compound 4 µM)	relative viability ([2]; first compound 0.04 µM)	relative viability ([2]; first compound 0.1265 µM)	relative viability ([2]; first compound 0.4 µM)	relative viability ([2]; first compound 1.265 µM)	relative viability ([2]; first compound 4 µM)	relative viability ([3]; first compound 0.04 µM)	relative viability ([3]; first compound 0.1265 µM)	relative viability ([3]; first compound 0.4 µM)	relative viability ([3]; first compound 1.265 µM)	relative viability ([3]; first compound 4 µM)	relative viability ([4]; first compound 0.04 µM)	relative viability ([4]; first compound 0.1265 µM)	relative viability ([4]; first compound 0.4 µM)	relative viability ([4]; first compound 1.265 µM)	relative viability ([4]; first compound 4 µM)
NCI-H650	1.16	1.09	1.05	0.934	1.03	0.73	0.762	1.21	1.01	1.06	1.01	0.639	0.41	0.283	0.271	0.288	0.318	0.301	0.237	0.32
NCI-H661	0.973	1.03	1.04	0.943	0.834	0.646	0.437	0.411	–	0.475	0.377	0.367	0.37	0.372	0.266	0.498	0.559	0.406	0.448	0.33
NCI-H727	0.854	0.811	0.693	0.573	0.949	0.82	0.799	0.802	–	0.741	0.609	0.666	0.586	0.478	0.502	–	1.07	0.676	0.662	0.973
NCI-H838	1.1	0.986	0.958	0.888	1.09	1.09	0.876	0.92	0.692	1.03	0.259	0.277	0.237	0.196	0.174	0.422	0.393	0.303	0.331	0.271
NCI-H1355	1	0.875	0.85	0.946	0.793	1	0.812	0.952	0.844	1.1	0.654	0.652	0.582	0.563	0.569	0.31	0.36	0.358	0.364	0.307
NCI-H1395	0.847	0.881	1.01	0.986	0.94	0.929	0.938	1.04	0.957	1.05	0.916	0.799	0.701	0.38	0.493	0.701	0.601	0.646	0.459	0.521
NCI-H1437	1.23	1.14	1.15	1.15	1.08	0.777	0.668	0.74	0.635	0.641	0.432	0.382	0.383	0.315	0.314	0.489	0.61	0.547	0.499	0.426
NCI-H1650	1.26	0.893	0.931	–	0.808	0.721	0.797	0.711	0.39	0.645	0.469	0.394	0.386	0.223	0.25	0.504	0.282	0.348	0.604	0.478
